Source: patent publication US12365687B2 (Hoffmann-La Roche Inc., priority 2021, dated 2025)
Like-named read-outs stand apart in the source and are kept apart here.

How the values were obtained:
[1] = target: human GABAA α1β3γ2 receptor (Homo sapiens (Human), UniProt P14867+P18507); assay: Radioligand binding assay for γ2-containing GABAA subtypes, [3H]Flumazenil competition (α1β3γ2); conditions: for γ2/γ1 Selectivity Ratio: Ki α1β3γ2 (nM)/Ki α2β2γ1 (nM); for LogSel: Log[Ki α1β3γ2 (nM)/Ki α2β2γ1 (nM)]
[2] = target: human GABAA α2β2γ1 receptor (Homo sapiens (Human), UniProt P47869+Q8N1C3); assay: Radioligand binding assay for γ1-containing GABAA subtypes, [3H]RO7239181 competition (α2β2γ1)
[3] = target: α2β2γ1 GABAA receptor subtype (Homo sapiens (Human), UniProt P47869+Q8N1C3); assay: Two-electrode voltage clamp electrophysiology in Xenopus oocytes expressing GABAA receptors (modulation of GABA EC20 current); type: cell-based; conditions: for Efficacy (GABA)%: % modulation of GABA EC20 = 100*(Fold increase-1), α2β2γ1 oocytes, compound at approx. 30-fold Ki; for Fold increase h-GABA-A α2β2γ1 oocyte @ 30-fold Ki: Xenopus oocytes expressing α2β2γ1, compound at approx. 30-fold its Ki α2β2γ1, GABA EC20 current
How it was run: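 Two-electrode voltage clamp at −80 mV, room temperature, 3-5 days after mRNA injection into oocytes. GABA applied at EC20 for 1.5 min, twice, with compound during second application; at least 3 oocytes per concentration. Efficacy = extremum of point-by-point current ratio, expressed as 100×(fold increase−1).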

[4] = target: human GABAA α5β2γ1 receptor (Homo sapiens (Human), UniProt P31644+Q8N1C3); assay: Radioligand binding assay for γ1-containing GABAA subtypes, [3H]RO7239181 competition (α5β2γ1)
[5] = Ki h-GABAA α2β2γ1, [3H]RO7239181 competition binding, human GABAA α2β2γ1
[6] = Ki h-GABAA α2β2γ1, displacement of [3H]RO7239181, membranes of HEK293F cells expressing human receptors, means of two determinations

SMILES	Ki [1] [nM]	γ2/γ1 Selectivity Ratio [1]	LogSel [1]	Ki [2, 5] [nM]	Ki [2, 6] [nM]	Efficacy (GABA)% [3] [%]	Fold increase h-GABA-A α2β2γ1 oocyte @ 30-fold Ki [3]	Ki [4] [nM]	γ2/γ1 Selectivity Ratio ([1]; Table 3)	LogSel ([1]; Table 3)	Ki ([1]; read-out: Ki h-GABAA α1β3γ2, Table 3, reference compounds) [nM]	Ki ([2]; Ki h-GABAA α2β2γ1, Table 3, reference compounds) [nM]
C[C@@H]1N=C(c2c(F)cccc2F)c2c(ccc(C(F)(F)F)c2Cl)-n2nc(NC(=O)N3CC(F)C3)nc21 [Example 128, N-[(4S)-7-chloro-6-(2,6-difluorophenyl)-4-methyl-8-(trifluoromethyl)-4H-[1,2,4]triazolo[1,5-a][1,4]benzodiazepin-2-yl]-3-fluoro-azetidine-1-carboxamide]	3880	111.4	2.05	34.8	34.9	98	1.98	4.2	–	–	–	–
Cc1nc2n(n1)-c1ccc(C(F)(F)F)c(Cl)c1C(c1ncccc1F)=N[C@H]2C [Example 83, (4S)-7-chloro-6-(3-fluoro-2-pyridyl)-2,4-dimethyl-8-(trifluoromethyl)-4H-[1,2,4]triazolo[1,5-a][1,4]benzodiazepine]	5490	77.6	1.89	70.8	70.8	154	2.54	5.54	–	–	–	–
C[C@@H]1N=C(c2ncccc2F)c2c(ccc(Br)c2Cl)-n2nc(C(=O)N3CCC3)nc21 [Example 48, azetidin-1-yl-[(4S)-8-bromo-7-chloro-6-(3-fluoro-2-pyridyl)-4-methyl-4H-[1,2,4]triazolo[1,5-a][1,4]benzodiazepin-2-yl]methanone]	1310	70.2	1.85	18.6	18.6	94	1.94	3.22	–	–	–	–
C[C@@H]1N=C(c2c(F)cccc2F)c2c(ccc(Cl)c2Cl)-n2nc(C(=O)N3CC4(CCCO4)C3)nc21 [Example 108, [(4S)-7,8-dichloro-6-(2,6-difluorophenyl)-4-methyl-4H-[1,2,4]triazolo[1,5-a][1,4]benzodiazepin-2-yl]-(5-oxa-2-azaspiro[3.4]octan-2-yl)methanone]	688	175.8	2.24	3.9	3.92	46	1.46	2.59	–	–	–	–
C[C@@H]1N=C(c2c(F)cccc2F)c2c(ccc(Cl)c2Cl)-n2nc(C(=O)NC3COC3)nc21 [Example 55, (4S)-7,8-dichloro-6-(2,6-difluorophenyl)-4-methyl-N-(oxetan-3-yl)-4H-[1,2,4]triazolo[1,5-a][1,4]benzodiazepine-2-carboxamide]	555	102.8	2.01	5.4	5.4	58	1.58	1.15	–	–	–	–
Fc1cccc(F)c1C1=NCc2nc(C(F)F)nn2-c2ccc(Cl)c(Cl)c21 [Example 33, 7,8-dichloro-2-(difluoromethyl)-6-(2,6-difluorophenyl)-4H-[1,2,4]triazolo[1,5-a][1,4]benzodiazepine]	659	61.2	1.79	10.8	10.8	56	1.56	0.69	–	–	–	–
CC1CN(C(=O)c2nc3n(n2)-c2ccc(Cl)c(Cl)c2C(c2ncccc2F)=N[C@H]3C)C1 [Example 87, [(4S)-7,8-dichloro-6-(3-fluoro-2-pyridyl)-4-methyl-4H-[1,2,4]triazolo[1,5-a][1,4]benzodiazepin-2-yl]-(3-methylazetidin-1-yl)methanone]	3290	59.7	1.78	55.2	55.2	84	1.84	5.5	–	–	–	–
[2H]C([2H])([2H])NC(=O)c1nc2n(n1)-c1ccc(C(F)(F)F)c(Cl)c1C(c1c(F)cccc1F)=N[C@H]2C [Example 34, (4S)-7-chloro-6-(2,6-difluorophenyl)-4-methyl-N-(trideuteriomethyl)-8-(trifluoromethyl)-4H-[1,2,4]triazolo[1,5-a][1,4]benzodiazepine-2-carboxamide]	2180	152.4	2.18	14.3	14.3	71	1.71	2.11	–	–	–	–
C[C@@H]1N=C(c2c(F)cccc2F)c2c(ccc(C(F)(F)F)c2Cl)-n2ccnc21 [Example 150, (4S)-7-chloro-6-(2,6-difluorophenyl)-4-methyl-8-(trifluoromethyl)-4H-imidazo[1,2-a][1,4]benzodiazepine]	758	103.2	–	7.3	7.3	70	–	1.33	–	–	–	–
C[C@H](O)CNC(=O)c1nc2n(n1)-c1ccc(Cl)c(Cl)c1C(c1c(F)cccc1F)=N[C@H]2C [Example 63, (4S)-7,8-dichloro-6-(2,6-difluorophenyl)-4-methyl-N-[(2S)-2-hydroxypropyl]-4H-[1,2,4]triazolo[1,5-a][1,4]benzodiazepine-2-carboxamide]	606	142.6	2.15	4.2	4.25	79	1.79	1.33	–	–	–	–
C[C@@H]1N=C(c2c(F)cccc2F)c2c(ccc(Cl)c2Cl)-n2nc(C(=O)N3CC[C@H](O)C3)nc21 [Example 43, [(4S)-7,8-dichloro-6-(2,6-difluorophenyl)-4-methyl-4H-[1,2,4]triazolo[1,5-a][1,4]benzodiazepin-2-yl]-[(3S)-3-hydroxypyrrolidin-1-yl]methanone]	837	176.3	2.25	4.7	4.75	71	1.71	1.26	–	–	–	–
[2H]C([2H])([2H])N(C(=O)c1nc2n(n1)-c1ccc(Cl)c(Cl)c1C(c1c(F)cccc1F)=N[C@H]2C)C([2H])([2H])[2H] [Example 19, (4S)-7,8-dichlor-6-(2,6-difluorophenyl)-4-methyl-N,N-bis(trideuteriomethyl)-4H-[1,2,4]triazolo[1,5-a][1,4]benzodiazepine-2-carboxamide]	2650	81.5	1.91	32.5	32.5	97	1.97	1.98	81.5	1.91	2650	32.5
C[C@@H]1N=C(c2ncccc2F)c2c(ccc(C(F)(F)F)c2Cl)-n2cc(CO)nc21 [Example 153, [(4S)-7-chloro-6-(3-fluoro-2-pyridyl)-4-methyl-8-(trifluoromethyl)-4H-imidazo[1,2-a][1,4]benzodiazepin-2-yl]methanol]	6020	97.7	1.99	62.4	61.7	247	3.47	6.76	–	–	–	–
C[C@@H]1N=C(c2c(F)cccc2F)c2c(ccc(Cl)c2Cl)-n2nc(NC(=O)N3CC(F)C3)nc21 [Example 57, 3-fluoro-N-[(4S)-7,8-dichloro-6-(2,6-difluorophenyl)-4-methyl-4H-[1,2,4]triazolo[1,5-a][1,4]benzodiazepin-2-yl]azetidine-1-carboxamide]	822	46.2	1.67	17.8	17.8	76	1.76	1.84	–	–	–	–
